From ChEMBL document CHEMBL1138374, “Arylsulfonamides as a new class of cannabinoid CB1 receptor ligands: identification of a lead and initial SAR studies” (Bioorg Med Chem Lett, 2007)

How the values were obtained:
[1] = molecular target: T1, Cannabinoid receptor 1 (Homo sapiens, UniProt P21554); assay: Binding affinity to human recombinant CB1 receptor
[2] = molecular target: T1, Cannabinoid receptor 1; assay: Agonist activity at human recombinant CB1 receptor expressed in CHO cells by [35S]GTP-gamma-S binding assay; format: functional, cell-based
[3] = test system: Mus musculus; assay: Induction of hypotonia NMRI mouse at 0.3 mg/kg, ip; format: organism-based; set-up: dose 0.3 mg/kg, route intraperitoneal; details: in vivo
[4] = test system: Mus musculus; assay: Induction of hypokinesia NMRI mouse at 0.3 mg/kg, ip; format: organism-based; set-up: dose 0.3 mg/kg, route intraperitoneal; details: in vivo
[5] = test system: Mus musculus; assay: Reduction of nociception in ip dosed NMRI mouse during late phase (10 to 30 mins); format: functional
[6] = test system: Mus musculus; assay: Reduction of nociception in NMRI mouse during late phase (10 to 30 mins) at 30 mg/kg, ip by formalin test; format: functional; set-up: scale not given: the % may be the effect or the level left; details: route intraperitoneal
[7] = test system: Mus musculus; assay: Reduction of nociception in NMRI mouse during late phase (10 to 30 mins) at 180 mg/kg, ip by formalin test; format: functional; set-up: scale not given: the % may be the effect or the level left; details: route intraperitoneal
[8] = molecular target: Cannabinoid receptor 1 (Mus musculus) (UniProt P47746); details: Vas deferens
Description: Agonist activity at CB1 receptor assessed as inhibition of electrically-induced twitch contraction amplitude in mouse vas deferens

[9] = molecular target: Cannabinoid receptor 2 (Homo sapiens, UniProt P34972); assay: Binding affinity to CB2 receptor
[10] = molecular target: Cannabinoid receptor 1 (Mus musculus) (UniProt P47746); details: Vas deferens; 0.1 uM
Description: Agonist activity at CB1 receptor assessed as inhibition of electrically-induced twitch contraction amplitude in mouse vas deferens at 0.1 uM relative to WIN-55212-2

[11] = test system: Mus musculus; assay: Reduction of nociception in NMRI mouse during early phase (0 to 5 mins) at 30 mg/kg, ip by formalin test; format: functional; set-up: scale not given: the % may be the effect or the level left; details: route intraperitoneal
[12] = test system: Mus musculus; assay: Reduction of nociception in NMRI mouse during early phase (0 to 5 mins) at 10 mg/kg, ip by formalin test; format: functional; set-up: scale not given: the % may be the effect or the level left; details: route intraperitoneal
[13] = organism: Homo sapiens
Description: Selectivity for CB2 receptor over human recombinant CB1 receptor

[14] = test system: Mus musculus; assay: Reduction of nociception in NMRI mouse during late phase (10 to 30 mins) at 10 mg/kg, ip by formalin test; format: functional; set-up: scale not given: the % may be the effect or the level left; details: route intraperitoneal
[15] = test system: Mus musculus; assay: Reduction of nociception in NMRI mouse during late phase (10 to 30 mins) at 90 mg/kg, ip by formalin test; format: functional; set-up: scale not given: the % may be the effect or the level left; details: route intraperitoneal
[16] = test system: Mus musculus; assay: Reduction of nociception in NMRI mouse during early phase (0 to 5 mins) at 80 mg/kg, ip by formalin test; format: functional; set-up: scale not given: the % may be the effect or the level left; details: route intraperitoneal
[17] = test system: Mus musculus; assay: Reduction of nociception in NMRI mouse during early phase (0 to 5 mins) at 90 mg/kg, ip by formalin test; format: functional; set-up: scale not given: the % may be the effect or the level left; details: route intraperitoneal
[18] = test system: Mus musculus; assay: Induction of hypokinesia with reduced postural tone NMRI mouse at 180 mg/kg, ip; format: organism-based; set-up: dose 180 mg/kg, route intraperitoneal; details: in vivo

T1 sequence (P21554 whole entry): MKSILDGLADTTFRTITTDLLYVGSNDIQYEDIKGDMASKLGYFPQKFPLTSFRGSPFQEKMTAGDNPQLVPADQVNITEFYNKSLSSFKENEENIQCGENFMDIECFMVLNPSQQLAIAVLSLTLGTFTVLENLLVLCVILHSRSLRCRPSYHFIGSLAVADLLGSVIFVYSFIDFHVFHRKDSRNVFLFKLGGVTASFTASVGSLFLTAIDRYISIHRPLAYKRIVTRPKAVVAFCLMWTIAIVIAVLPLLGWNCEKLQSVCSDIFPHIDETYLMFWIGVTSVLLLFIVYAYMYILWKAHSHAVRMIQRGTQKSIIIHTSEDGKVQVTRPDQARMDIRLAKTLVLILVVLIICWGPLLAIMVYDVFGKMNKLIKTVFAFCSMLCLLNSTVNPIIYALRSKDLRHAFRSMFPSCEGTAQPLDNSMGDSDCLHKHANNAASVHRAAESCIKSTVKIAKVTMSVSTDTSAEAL
Cannabinoid receptor 1 (Mus musculus), sequence (P47746 whole entry): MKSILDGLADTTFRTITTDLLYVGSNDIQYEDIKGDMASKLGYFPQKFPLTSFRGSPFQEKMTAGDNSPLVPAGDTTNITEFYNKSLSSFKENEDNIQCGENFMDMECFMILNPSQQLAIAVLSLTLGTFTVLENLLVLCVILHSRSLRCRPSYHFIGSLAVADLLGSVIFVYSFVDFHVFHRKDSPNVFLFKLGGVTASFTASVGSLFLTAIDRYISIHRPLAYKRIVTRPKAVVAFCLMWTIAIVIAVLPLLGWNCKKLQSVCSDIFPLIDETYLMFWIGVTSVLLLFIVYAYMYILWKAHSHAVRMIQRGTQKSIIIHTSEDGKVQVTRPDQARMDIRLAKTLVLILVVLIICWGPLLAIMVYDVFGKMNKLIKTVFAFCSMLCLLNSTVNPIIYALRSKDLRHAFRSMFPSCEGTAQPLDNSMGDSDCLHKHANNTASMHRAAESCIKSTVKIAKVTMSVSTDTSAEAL
Cannabinoid receptor 2, sequence (P34972 whole entry): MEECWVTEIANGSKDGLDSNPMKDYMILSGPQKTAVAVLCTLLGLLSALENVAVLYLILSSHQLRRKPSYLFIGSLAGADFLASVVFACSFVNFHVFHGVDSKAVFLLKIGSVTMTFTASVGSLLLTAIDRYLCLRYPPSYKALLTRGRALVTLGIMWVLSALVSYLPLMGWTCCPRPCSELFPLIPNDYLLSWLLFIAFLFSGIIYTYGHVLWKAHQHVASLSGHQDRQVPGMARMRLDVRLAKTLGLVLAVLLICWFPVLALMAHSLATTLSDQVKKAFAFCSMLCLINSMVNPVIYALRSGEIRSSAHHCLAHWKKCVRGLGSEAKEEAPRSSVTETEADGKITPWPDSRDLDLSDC

Compound	IC50 [1]	EC50 [2]	other results
O=C(Oc1cccc2cccnc12)c1cccc(S(=O)(=O)N2CCCCCC2)c1	50.1 nM	200 nM	–
O=C(Nc1ccc(Cl)c(S(=O)(=O)N2CCOCC2)c1)c1cccc2ccccc12	398 nM	794 nM	–
Cc1ccc(C(=O)Nc2cccc3cnccc23)cc1S(=O)(=O)N1CCCCC1	1260 nM	6310 nM	–
Cc1ccc(NC(=O)c2ccccc2Oc2ccccc2)cc1S(=O)(=O)N1CCOCC1	2000 nM	> 10000 nM	–
COc1ccc(C(=O)Oc2cccc3cccnc23)cc1S(=O)(=O)N1CCOCC1	39.8 nM	398 nM	–
Nc1cccc(NC(=O)c2cccc(S(=O)(=O)N3CCCCC3)c2)c1	5010 nM	> 10000 nM	–
O=C(Oc1cccc2cccnc12)c1cccc(S(=O)(=O)N2CCCCC2)c1	15.8 nM	50.1 nM	–
Cc1ccc(C(=O)Oc2ccccc2Br)cc1S(=O)(=O)N1CCOCC1	31.6 nM	398 nM	–
Cc1ccc(C(=O)O)cc1S(=O)(=O)N1CCCCC1	> 10000 nM	> 10000 nM	–
O=C(Nc1ccccc1O)c1ccc(Cl)c(S(=O)(=O)N2CCCCCC2)c1	200 nM	1260 nM	–
COc1ccccc1OC(=O)c1ccc(C)c(S(=O)(=O)N2CCOCC2)c1	3160 nM	63.1 nM	–
Cc1ccc(C(=O)Oc2cccc3cccnc23)cc1S(=O)(=O)N1CCOCC1	1.26 nM	12.6 nM	–
Cc1ccc(NC(=O)c2ccc(C)c(S(=O)(=O)N3CCCCC3)c2)cc1	7940 nM	> 10000 nM	–
Cc1ccc(NC(=O)c2ccc(C)c(S(=O)(=O)N3CCCCC3)c2)nc1	3160 nM	> 10000 nM	–
Cc1ccc(C(=O)Nc2cccc(F)c2)cc1S(=O)(=O)N1CCCCC1	1260 nM	> 10000 nM	–
O=C(Nc1ccc(Cl)c(S(=O)(=O)N2CCOCC2)c1)c1ccccc1Cl	1580 nM	> 10000 nM	–
Cc1ccc(C(=O)Nc2ccccc2)cc1S(=O)(=O)N1CCCC1	6310 nM	> 10000 nM	–
Cc1c(C(=O)c2cccc3ccccc23)c2cccc3c2n1[C@H](CN1CCOCC1)CO3 [WIN-552122]	–	–	Activity [3]: Toxic; Activity [4]: Toxic; ED50 [5]: 0.21 mg/kg
O=C(Oc1cccc2cccnc12)c1cccc(S(=O)(=O)N2CCCC2)c1	158 nM	631 nM	–
O=C(Nc1ccc(Cl)c(S(=O)(=O)N2CCOCC2)c1)c1ccccc1	3980 nM	631 nM	–
Cc1ccc(NC(=O)c2cccc(C#N)c2)cc1S(=O)(=O)N1CCOCC1	1580 nM	5010 nM	–
COc1ccccc1NC(=O)c1cccc(S(=O)(=O)N2CCCCC2)c1	> 10000 nM	–	–
Cc1ccc(C(=O)Nc2ccccc2)cc1S(=O)(=O)N1CCCCC1	3160 nM	> 10000 nM	–
Cc1ccc(C(=O)Oc2cccc3cccnc23)cc1S(=O)(=O)N1CCCCC1	0.794 nM	10 nM	Activity [6]: -50%; Activity [7]: -59%; pD2 [8]: 6.42; Ki [9]: 25.1 nM; inhibition [10]: 87.3%; Activity [11]: -1%; Activity [12]: -1%; logSI [13]: 1; Activity [14]: -15%; Activity [15]: -71%; Activity [16]: -54%; Activity [17]: -53%; Activity [18]: Toxic
